O=C(CN1C(=O)S/C(=C\c2ccc(Cl)cc2)C1=O)N1CCN(CC(O)(Cn2cncn2)c2cc(F)ccc2F)CC1 (stereo not given)
solubility (mole fraction)
Conditions	293.15 K	298.15 K	303.15 K	308.15 K	313.15 K
in ethanol	0.000161	0.0002	0.000254	0.000312	0.000377
in n-hexane	2.34e-06	3.14e-06	4.1e-06	5.16e-06	6.28e-06
in n-octanol	0.00047	0.000578	0.000723	0.000882	0.00115

From BigSolDB 2.1
